# Laboratory results as given in patent US8604087B2, “Composition for treating or preventing amyloid-related diseases comprising 4-O-methylhonokiol” (priority 2008, dated 2013).
# How the values were obtained:
# [1] = test system: scopolamine-induced impairment of learning ability of mice; assay: Water maze test for evaluating spatial learning ability; assay type: in vivo, male ICR mice; conditions: for Improvement: escape distance
# Description: In order to test the effect of 4-O-methylhonokiol on the scopolamine-induced impairment of learning ability of mice, experiment was performed as follows based on the water maze test animal model described in the literature [Korea Health Research Association, Guidelines for the Testing of Functional Health Foods, 663-701, 2004; Widy-Tyszkiewicz et al., Biol. Pharm. Bull., 2002]. 5-6 weeks old male ICR mice (20-28 g; Dae Han Biolink, Korea) were raised under controlled lighting (12-hour light-dark cycle) and temperature (22±2° C.) conditions. They were grouped (n=10) and given free access to food and water, in a cage. The mice were accustomed for a week before performing the test.
# A round pool 180 cm in diameter and 50 cm in height was filled with water (22±3° C.) to 30 cm in depth. A transparent acryl resin platform (diameter 12 cm) was placed 1.5 cm below the surface of the water. The mice were trained for 6 days, 180 seconds a day (acquisition test). On day 7, retention test was carried out. The mice were forced to swim for 60 seconds by removing the platform. All the behaviors of the mice were recorded using a video camera. Time and distance were measured until the mice climbed onto the platform.
# 4-O-methylhonokiol (0.5, 1 and 1.5 mg/kg) was dissolved in drinking water and orally administered to the mice, for a week. The comparison group was treated with scopolamine only, and the control group was not treated with any substance.
# [2] = target: acetylcholinesterase (Homo sapiens, UniProt P22303); assay: Inhibition of acetylcholinesterase activity by honokiol and 4-O-methylhonokiol (modified Ellman's method); assay type: biochemical; conditions: for IC50: 5 minutes of reaction at 25° C., pH 8.0; for inhibition at 0.01 µM: concentration 10 nM; for inhibition at 0.1 µM: concentration 100 nM
# Description: Acetylcholinesterase activity was analyzed by the modified Ellman's method [Ellman G. L., et al., Biochem. Pharmacol. 7, 88-95, 1961]. After adding 50 mM phosphate buffer (30 μL, pH 8.0) to a 96-well plate, different concentrations of 4-O-methylhonokiol or honokiol was added, 10 μL per well, and acetylcholinesterase was added, 10 μL per well. Then, 50 mM phosphate buffer (50 μL, pH 8.0) containing 0.5 mM acetylthiocholine iodide and 1 mM 5,5′-dithiobis(2-nitrobenzoic acid) was added as a substrate for the enzyme. After 5 minutes of reaction at 25° C., absorbance was measured at 412 nm. The inhibition of acetylcholinesterase activity was calculated by the following equation. Measurement was made 3 times. Inhibition of acetylcholinesterase activity (%)=[…]
# ODb: absorbance of untreated reaction solution at 412 nm;
# ODs: absorbance of treated reaction solution at 412 nm; and
# ODc: absorbance of control at 412 nm.
# [3] = test system: Amyloid-β 1-42; assay: Inhibition of amyloid-β 1-42 production in mouse brain cortex and hippocampus (amyloid beta 1-42 assay kit); assay type: in vivo; conditions: for Improvement: production amount
# Description: (§1) After the behavioral pharmacological experiments, the brain cortex and hippocampus were separated from the brain of the mouse, homogenized with RO-PREP protein extraction solution, and centrifuged at 4° C., at 15,000 rpm, for 2 hours. The protein quantity of the supernatant was analyzed with a Bio-Rad protein analysis kit (Bio-Rad). Amyloid-β 1-42 were quantitated using an amyloid beta 1-42 assay kit (Immuno-Biological, Japan).
# The protein extract (100 μL) obtained from the brain cortex or hippocampus was put in a coated 96-well plate and incubated at 4° C. overnight. After washing with washing buffer and adding labeled antibody solution, the mixture was incubated at 4° C. for 1 hour in the dark. After washing again and adding chromogen, the mixture was incubated at room temperature for 30 minutes in the dark. Then, after adding stop solution, absorbance was measured at 450 nm. Measurement was made 3 times.
# [4] = target: T1, Acetylcholinesterase (Mus musculus, UniProt P21836); assay: Acetylcholinesterase activity in mouse brain cortex and hippocampus after the behavioral experiments (modified Ellman's method); assay type: in vivo; design: Enzyme activity: unit not given beside the values; conditions: for Improvement: enzyme activity
# T1 construct: the brain cortex and hippocampus were separated from the brain of the mouse, homogenized with RO-PREP protein extraction solution; from tissue; host or cells: mouse brain cortex and hippocampus
# T1 sequence (P21836 32-614): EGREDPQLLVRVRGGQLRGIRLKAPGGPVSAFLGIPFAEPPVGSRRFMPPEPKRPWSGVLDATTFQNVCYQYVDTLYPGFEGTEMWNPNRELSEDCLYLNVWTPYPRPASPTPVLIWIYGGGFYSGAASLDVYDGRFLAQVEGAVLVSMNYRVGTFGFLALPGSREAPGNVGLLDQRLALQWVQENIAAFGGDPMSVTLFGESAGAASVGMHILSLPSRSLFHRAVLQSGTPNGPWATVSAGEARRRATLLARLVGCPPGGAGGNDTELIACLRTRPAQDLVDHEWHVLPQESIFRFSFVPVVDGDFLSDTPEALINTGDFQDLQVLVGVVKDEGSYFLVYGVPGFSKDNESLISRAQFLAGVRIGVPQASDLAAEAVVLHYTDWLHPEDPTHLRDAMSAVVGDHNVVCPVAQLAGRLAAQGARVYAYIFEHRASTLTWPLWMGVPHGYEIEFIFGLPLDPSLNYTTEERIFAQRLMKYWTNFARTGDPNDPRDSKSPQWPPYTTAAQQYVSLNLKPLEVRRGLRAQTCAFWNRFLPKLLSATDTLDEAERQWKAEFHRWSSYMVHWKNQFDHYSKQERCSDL
# Description: as §1, with “solution (iNtRON Biotechnology),” for “solution,”, “Acetylcholinesterase activity was analyzed by the modified Ellman's method.” for “Amyloid-β 1-42 were quantitated using an amyloid beta 1-42 assay kit (Immuno-Biological, Japan).”
# Cell lysate was put in a 96-well plate, 10 μL per well. After adding reaction buffer [190 μL, 0.01% DTNB, 0.02% acetylthiocholine and 0.1 mM isoOMPA in 50 mM Tris-HCl (pH 8.0, 0.1 M NaCl, 20 mM MgCl2)], measurement was made at 37° C., at 405 nm, for 5 minutes. After 10 minutes of reaction, measurement was made again at the same wavelength. After adding different concentrations of acetylcholinesterase and treating with standard buffer [0.01% DTNB and 0.02% 0.1 mM isoOMPA in 50 mM Tris-HCl (pH 8.0, 0.1 M NaCl, 20 mM MgCl2)], measurement was made at 37° C., at 405 nm, for 5 minutes. Activity was calculated from the difference of absorbance at the first and second measurements.
# [5] = test system: scopolamine-induced impairment of memory of mice; assay: Passive avoidance test for evaluating explicit memory; assay type: in vivo; conditions: for Improvement: step-through latency
# Description: In order to test the effect of 4-O-methylhonokiol on the scopolamine-induced impairment of memory of mice, experiment was performed as follows based on the passive avoidance test animal model described in the literature [Korea Health Research Association, Guidelines for the Testing of Functional Health Foods, 663-701, 2004; Rho et al., Biol. Pharm. Bull., 2005].
# A passive avoidance instrument consisting of two chambers separated by a guillotine door was used as the experimental apparatus. One chamber was an illuminated chamber made of transparent acryl boards (30×30×30 cm) and the other was a dark chamber made of black acryl boards (same dimensions). The floor of the dark chamber was equipped with a grid made of aluminum pieces separated by a regular spacing. The grid was connected to an apparatus for delivering electric shocks to the feet of the test animal. A mouse was put into the illuminated chamber and the guillotine door was opened so that the mouse could enter the dark chamber. The acquisition trials were repeated 3 times. On the third run, immediately after the mouse entered the dark chamber, an electric shock was delivered through the aluminum grid (0.1 mA, 5 seconds). Memory test was performed 24 hours after the acquisition trials. The mouse was put into the illuminated chamber, the guillotine door was opened, and the time taken for the mouse to enter the dark chamber was measured (step-through latency). A longer time means better learning ability and memory. 10 mice were tested for each group.
# [6] = scopolamine 1 mg/kg + 4-O-methylhonokiol 0.5 mg/kg
# [7] = scopolamine 1 mg/kg + 4-O-methylhonokiol 1 mg/kg
# [8] = scopolamine 1 mg/kg + 4-O-methylhonokiol 1.5 mg/kg
# [9] = brain cortex, scopolamine 1 mg/kg + 4-O-methylhonokiol 0.5 mg/kg
# [10] = brain cortex, scopolamine 1 mg/kg + 4-O-methylhonokiol 1 mg/kg
# [11] = brain cortex, scopolamine 1 mg/kg + 4-O-methylhonokiol 1.5 mg/kg
# [12] = hippocampus, scopolamine 1 mg/kg + 4-O-methylhonokiol 0.5 mg/kg
# [13] = hippocampus, scopolamine 1 mg/kg + 4-O-methylhonokiol 1 mg/kg
# [14] = hippocampus, scopolamine 1 mg/kg + 4-O-methylhonokiol 1.5 mg/kg
# acetylcholinesterase, sequence (P22303 32-614, species assumed): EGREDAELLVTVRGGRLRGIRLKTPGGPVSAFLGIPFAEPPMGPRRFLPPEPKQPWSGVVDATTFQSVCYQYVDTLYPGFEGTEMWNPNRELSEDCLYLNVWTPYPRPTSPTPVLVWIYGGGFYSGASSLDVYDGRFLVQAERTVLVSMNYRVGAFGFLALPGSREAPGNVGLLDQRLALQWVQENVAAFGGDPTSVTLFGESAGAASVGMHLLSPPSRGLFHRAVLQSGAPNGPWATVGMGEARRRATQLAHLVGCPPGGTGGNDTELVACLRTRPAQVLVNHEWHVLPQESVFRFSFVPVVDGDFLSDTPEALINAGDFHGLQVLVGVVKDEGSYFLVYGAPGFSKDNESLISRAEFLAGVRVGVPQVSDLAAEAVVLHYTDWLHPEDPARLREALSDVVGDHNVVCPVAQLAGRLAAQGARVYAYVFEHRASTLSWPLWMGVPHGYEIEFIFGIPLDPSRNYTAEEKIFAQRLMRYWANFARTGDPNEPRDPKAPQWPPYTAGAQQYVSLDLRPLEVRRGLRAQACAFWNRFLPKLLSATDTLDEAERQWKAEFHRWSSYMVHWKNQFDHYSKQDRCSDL
compound,measurement,setting,value
C=CCc1ccc(O)c(-c2ccc(OC)c(CC=C)c2)c1 [4-O-methylhonokiol],Improvement,[1]; [6],48.8%
same,Improvement,[1]; [7],88.6%
same,Improvement,[1]; [8],91.8%
same,Escape distance,"[1]; scopolamine 1 mg/kg + 4-O-methylhonokiol 0.5 mg/kg oral in drinking water for a week, mice",566 cm
same,Escape distance,"[1]; scopolamine 1 mg/kg + 4-O-methylhonokiol 1 mg/kg oral in drinking water for a week, mice",305 cm
same,Escape distance,"[1]; scopolamine 1 mg/kg + 4-O-methylhonokiol 1.5 mg/kg oral in drinking water for a week, mice",284 cm
same,IC50,[2],1.2 nM
same,inhibition at 0.001 µM,[2]; concentration 1 nM,47%
same,inhibition at 0.01 µM,[2],68%
same,inhibition at 0.1 µM,[2],78%
same,times better inhibition ability of acetylcholinesterase activity than honokiol,[2]; ratio of IC50 values,about 200 times
same,Production amount,"[3]; amyloid-β 1-42, brain cortex, β-amyloid 1 mg/kg + 4-O-methylhonokiol 0.5 mg/kg",26.8
same,Production amount,"[3]; amyloid-β 1-42, brain cortex, β-amyloid 1 mg/kg + 4-O-methylhonokiol 1 mg/kg",24.3
same,Production amount,"[3]; amyloid-β 1-42, brain cortex, β-amyloid 1 mg/kg + 4-O-methylhonokiol 1.5 mg/kg",23.1
same,Production amount,"[3]; amyloid-β 1-42, hippocampus, β-amyloid 1 mg/kg + 4-O-methylhonokiol 0.5 mg/kg",22.7
same,Production amount,"[3]; amyloid-β 1-42, hippocampus, β-amyloid 1 mg/kg + 4-O-methylhonokiol 1 mg/kg",18.2
same,Production amount,"[3]; amyloid-β 1-42, hippocampus, β-amyloid 1 mg/kg + 4-O-methylhonokiol 1.5 mg/kg",16.5
same,Improvement,"[3]; brain cortex, β-amyloid 1 mg/kg + 4-O-methylhonokiol 0.5 mg/kg",28.3%
same,Improvement,"[3]; brain cortex, β-amyloid 1 mg/kg + 4-O-methylhonokiol 1 mg/kg",82.6%
same,Improvement,"[3]; brain cortex, β-amyloid 1 mg/kg + 4-O-methylhonokiol 1.5 mg/kg",100%
same,Improvement,"[3]; hippocampus, β-amyloid 1 mg/kg + 4-O-methylhonokiol 0.5 mg/kg",33.3%
same,Improvement,"[3]; hippocampus, β-amyloid 1 mg/kg + 4-O-methylhonokiol 1 mg/kg",77.8%
same,Improvement,"[3]; hippocampus, β-amyloid 1 mg/kg + 4-O-methylhonokiol 1.5 mg/kg",95.6%
same,Enzyme activity,[4]; [9],30.2
same,Enzyme activity,[4]; [10],24.1
same,Enzyme activity,[4]; [11],19.1
same,Improvement,[4]; [9],42.8%
same,Improvement,[4]; [10],70.3%
same,Improvement,[4]; [11],92.8%
same,Improvement,[4]; [12],72.7%
same,Improvement,[4]; [13],93.2%
same,Improvement,[4]; [14],97.7%
same,Enzyme activity,[4]; [12],14.1
same,Enzyme activity,[4]; [13],13.2
same,Enzyme activity,[4]; [14],13
same,Step-through latency,"[5]; scopolamine 1 mg/kg + 4-O-methylhonokiol 0.5 mg/kg, 24 hours after acquisition trials",21.9 s
same,Step-through latency,"[5]; scopolamine 1 mg/kg + 4-O-methylhonokiol 1 mg/kg, 24 hours after acquisition trials",28.3 s
same,Step-through latency,"[5]; scopolamine 1 mg/kg + 4-O-methylhonokiol 1.5 mg/kg, 24 hours after acquisition trials",33.5 s
same,Improvement,[5]; [6],37.1%
same,Improvement,[5]; [7],70%
same,Improvement,[5]; [8],95%
C=CCc1ccc(O)c(-c2ccc(O)c(CC=C)c2)c1 [Honokiol],IC50,[2],250 nM
same,inhibition at 0.01 µM,[2],17%
same,inhibition at 0.1 µM,[2],43%
same,inhibition at 1 µM,[2]; concentration 1000 nM,74%
"CN1[C@@H]2C[C@@H](OC(=O)[C@H](CO)c3ccccc3)C[C@H]1[C@@H]1O[C@@H]12 [scopolamine, Scopolamine, reference compound]",Escape distance,"[1]; comparison group, scopolamine 1 mg/kg only (control group 232)",884 cm
same,Step-through latency,"[5]; comparison group, scopolamine 1 mg/kg only (control group 34.3)",14.6 s
β-amyloid [reference compound],Production amount,"[3]; amyloid-β 1-42, brain cortex, comparison group, β-amyloid 1 mg/kg only (control group 23.5)",28.1
same,Production amount,"[3]; amyloid-β 1-42, hippocampus, comparison group, β-amyloid 1 mg/kg only (control group 16.2)",25.1
